{"source": "ChEMBL document CHEMBL4680338", "about": "“Sinomenine inhibits hypoxia induced breast cancer side population cells metastasis by PI3K/Akt/mTOR pathway” (Bioorg Med Chem, 2021)", "key": {"MDA-MB-231 [1]": {"tested_on": "MDA-MB-231", "experiment": "Cytotoxicity against human MDA-MB-231 cells assessed as reduction in cell viability at 1 to 4 mM measured after 24 hrs under normoxia condition by CCK-8 assay", "format": "functional, cell-based", "details": "dose 1-4 mM"}, "MCF7 [2]": {"tested_on": "MCF7", "experiment": "Cytotoxicity against human MCF7 cells assessed as reduction in cell viability at 1 to 4 mM measured after 24 hrs under normoxia condition by CCK-8 assay", "format": "functional, cell-based", "details": "dose 1-4 mM"}, "MDA-MB-231 [3]": {"tested_on": "MDA-MB-231", "experiment": "Cytotoxicity against human MDA-MB-231 cells assessed as reduction in cell viability at 0.25 to 1 mM measured after 24 hrs under hypoxia condition by CCK-8 assay", "format": "functional, cell-based", "details": "dose 0.25-1 mM"}, "MCF7 [4]": {"tested_on": "MCF7", "experiment": "Cytotoxicity against human MCF7 cells assessed as reduction in cell viability at 0.25 to 1 mM measured after 24 hrs under hypoxia condition by CCK-8 assay", "format": "functional, cell-based", "details": "dose 0.25-1 mM"}, "MDA-MB-231 [5]": {"tested_on": "MDA-MB-231", "experiment": "Cytotoxicity against human MDA-MB-231 side population cells assessed as reduction in cell viability at 0.25 to 1 mM measured after 24 hrs under hypoxia condition by CCK-8 assay", "format": "functional, cell-based", "details": "dose 0.25-1 mM"}, "MDA-MB-231 [6]": {"tested_on": "MDA-MB-231", "experiment": "Cytotoxicity against human MDA-MB-231 side population cells assessed as reduction in cell viability at 0.25 to 1 mM measured after 24 hrs by CCK-8 assay", "format": "functional, cell-based", "details": "dose 0.25-1 mM"}, "MCF7 [7]": {"tested_on": "MCF7", "experiment": "Cytotoxicity against human MCF7 side population cells assessed as reduction in cell viability at 0.25 to 1 mM measured after 24 hrs under hypoxia condition by CCK-8 assay", "format": "functional, cell-based", "details": "dose 0.25-1 mM"}, "MCF7 [8]": {"tested_on": "MCF7", "experiment": "Cytotoxicity against human MCF7 side population cells assessed as reduction in cell viability at 0.25 to 1 mM measured after 24 hrs by CCK-8 assay", "format": "functional, cell-based", "details": "dose 0.25-1 mM"}, "MDA-MB-231 [9]": {"tested_on": "MDA-MB-231", "experiment": "Cytotoxicity against human MDA-MB-231 side population cells assessed as reduction in cell viability at 2 to 4 mM measured after 24 hrs under hypoxia condition by CCK-8 assay", "format": "functional, cell-based", "details": "dose 2-4 mM"}, "MCF7 [10]": {"tested_on": "MCF7", "experiment": "Cytotoxicity against human MCF7 side population cells assessed as reduction in cell viability at 2 to 4 mM measured after 24 hrs under hypoxia condition by CCK-8 assay", "format": "functional, cell-based", "details": "dose 2-4 mM"}, "MDA-MB-231 [11]": {"tested_on": "MDA-MB-231", "experiment": "Cytotoxicity against human MDA-MB-231 side population cells assessed as reduction in cell viability at 2 to 4 mM measured after 24 hrs under normoxia condition by CCK-8 assay", "format": "functional, cell-based", "details": "dose 2-4 mM"}, "MCF7 [12]": {"tested_on": "MCF7", "experiment": "Cytotoxicity against human MCF7 side population cells assessed as reduction in cell viability at 2 to 4 mM measured after 24 hrs under normoxia condition by CCK-8 assay", "format": "functional, cell-based", "details": "dose 2-4 mM"}, "MDA-MB-231 [13]": {"tested_on": "MDA-MB-231", "experiment": "Decrease in hypoxia-induced cell invasion in human MDA-MB-231 side population cells at 0.25 to 1 mM measured after measured after 24 hrs by crystal violet staining based transwell assay", "format": "functional", "details": "dose 0.25-1 mM"}, "MCF7 [14]": {"tested_on": "MCF7", "experiment": "Decrease in hypoxia-induced cell invasion in human MCF7 side population cells at 0.25 to 1 mM measured after measured after 24 hrs by crystal violet staining based transwell assay", "format": "functional", "details": "dose 0.25-1 mM"}, "MDA-MB-231 [15]": {"tested_on": "MDA-MB-231", "experiment": "Inhibition of hypoxia-induced cell invasion in human MDA-MB-231 cells at 0.25 to 1 mM measured after measured after 24 hrs by crystal violet staining based transwell assay", "format": "functional", "details": "dose 0.25-1 mM"}, "MCF7 [16]": {"tested_on": "MCF7", "experiment": "Inhibition of hypoxia-induced cell invasion in human MCF7 cells at 0.25 to 1 mM measured after measured after 24 hrs by crystal violet staining based transwell assay", "format": "functional", "details": "dose 0.25-1 mM"}, "MDA-MB-231 [17]": {"tested_on": "MDA-MB-231", "experiment": "Suppression of hypoxia-induced upregulation of N-cadherin expression in human MDA-MB-231 side population cells at 0.25 to 1 mM by Western blot analysis", "format": "functional", "details": "dose 0.25-1 mM"}, "MDA-MB-231 [18]": {"tested_on": "MDA-MB-231", "experiment": "Suppression of hypoxia-induced upregulation of vimentin expression in human MDA-MB-231 side population cells at 0.25 to 1 mM by Western blot analysis", "format": "functional", "details": "dose 0.25-1 mM"}, "MDA-MB-231 [19]": {"tested_on": "MDA-MB-231", "experiment": "Suppression of hypoxia-induced upregulation of MMP2 expression in human MDA-MB-231 side population cells at 0.25 to 1 mM by Western blot analysis", "format": "functional", "details": "dose 0.25-1 mM"}, "MDA-MB-231 [20]": {"tested_on": "MDA-MB-231", "experiment": "Suppression of hypoxia-induced upregulation of MMP9 expression in human MDA-MB-231 side population cells at 0.25 to 1 mM by Western blot analysis", "format": "functional", "details": "dose 0.25-1 mM"}, "MDA-MB-231 [21]": {"tested_on": "MDA-MB-231", "experiment": "Reversal of hypoxia-induced downregulation of E-cadherin expression in human MDA-MB-231 side population cells at 0.25 to 1 mM by Western blot analysis", "format": "functional", "details": "dose 0.25-1 mM"}, "MDA-MB-231 [22]": {"tested_on": "MDA-MB-231", "experiment": "Suppression of hypoxia-induced upregulation of N-cadherin expression in human MDA-MB-231 cells at 0.25 to 1 mM by Western blot analysis", "format": "functional, cell-based", "details": "dose 0.25-1 mM"}, "MDA-MB-231 [23]": {"tested_on": "MDA-MB-231", "experiment": "Suppression of hypoxia-induced upregulation of vimentin expression in human MDA-MB-231 cells at 0.25 to 1 mM by Western blot analysis", "format": "functional, cell-based", "details": "dose 0.25-1 mM"}, "MDA-MB-231 [24]": {"tested_on": "MDA-MB-231", "experiment": "Suppression of hypoxia-induced upregulation of MMP2 expression in human MDA-MB-231 cells at 0.25 to 1 mM by Western blot analysis", "format": "functional, cell-based", "details": "dose 0.25-1 mM"}, "MDA-MB-231 [25]": {"tested_on": "MDA-MB-231", "experiment": "Suppression of hypoxia-induced upregulation of MMP9 expression in human MDA-MB-231 cells at 0.25 to 1 mM by Western blot analysis", "format": "functional, cell-based", "details": "dose 0.25-1 mM"}, "MDA-MB-231 [26]": {"tested_on": "MDA-MB-231", "experiment": "Reversal of hypoxia-induced downregulation of E-cadherin expression in human MDA-MB-231 cells at 0.25 to 1 mM by Western blot analysis", "format": "functional, cell-based", "details": "dose 0.25-1 mM"}, "MDA-MB-231 [27]": {"tested_on": "MDA-MB-231", "experiment": "Inhibition of hypoxia-induced activation of PI3K/Akt/mTOR signaling in human MDA-MB-231 side population cells assessed as decrease in phosphorylated PI3K level at 0.25 to 1 mM measured after 24 hrs by Western blot analysis", "details": "dose 0.25-1 mM"}, "MDA-MB-231 [28]": {"tested_on": "MDA-MB-231", "experiment": "Inhibition of hypoxia-induced activation of PI3K/Akt/mTOR signaling in human MDA-MB-231 side population cells assessed as decrease in phosphorylated Akt level at 0.25 to 1 mM measured after 24 hrs by Western blot analysis", "details": "dose 0.25-1 mM"}, "MDA-MB-231 [29]": {"tested_on": "MDA-MB-231", "experiment": "Inhibition of hypoxia-induced activation of PI3K/Akt/mTOR signaling in human MDA-MB-231 side population cells assessed as decrease in phosphorylated mTOR level at 0.25 to 1 mM measured after 24 hrs by Western blot analysis", "details": "dose 0.25-1 mM"}, "MDA-MB-231 [30]": {"tested_on": "MDA-MB-231", "experiment": "Inhibition of hypoxia-induced activation of PI3K/Akt/mTOR signaling in human MDA-MB-231 side population cells at 1 nM measured after 24 hrs in presence of IGF-1 by Western blot analysis"}, "MDA-MB-231 [31]": {"tested_on": "MDA-MB-231", "experiment": "Suppression of hypoxia-induced upregulation of MMP2 expression in human MDA-MB-231 cells at 1 nM measured after 24 hrs in presence of IGF-1 by Western blot analysis", "format": "functional, cell-based"}, "MDA-MB-231 [32]": {"tested_on": "MDA-MB-231", "experiment": "Suppression of hypoxia-induced upregulation of MMP9 expression in human MDA-MB-231 cells at 1 nM measured after 24 hrs in presence of IGF-1 by Western blot analysis", "format": "functional, cell-based"}}, "note": "Active and inactive are the calls of the source. The rule behind the calls is not given here.", "data": [{"smiles": "COC1=C[C@@H]2[C@@H]3Cc4ccc(OC)c(O)c4[C@]2(CCN3C)CC1=O", "values": [{"measurement": "Activity", "setting": "MDA-MB-231 [1]", "value": "Active"}, {"measurement": "Activity", "setting": "MCF7 [2]", "value": "Active"}, {"measurement": "Activity", "setting": "MDA-MB-231 [3]", "value": "inactive"}, {"measurement": "Activity", "setting": "MCF7 [4]", "value": "inactive"}, {"measurement": "Activity", "setting": "MDA-MB-231 [5]", "value": "inactive"}, {"measurement": "Activity", "setting": "MDA-MB-231 [6]", "value": "inactive"}, {"measurement": "Activity", "setting": "MCF7 [7]", "value": "inactive"}, {"measurement": "Activity", "setting": "MCF7 [8]", "value": "inactive"}, {"measurement": "Activity", "setting": "MDA-MB-231 [9]", "value": "Active"}, {"measurement": "Activity", "setting": "MCF7 [10]", "value": "Active"}, {"measurement": "Activity", "setting": "MDA-MB-231 [11]", "value": "Active"}, {"measurement": "Activity", "setting": "MCF7 [12]", "value": "Active"}, {"measurement": "Activity", "setting": "MDA-MB-231 [13]", "value": "Active"}, {"measurement": "Activity", "setting": "MCF7 [14]", "value": "Active"}, {"measurement": "inhibition", "setting": "MDA-MB-231 [15]", "value": "Active"}, {"measurement": "inhibition", "setting": "MCF7 [16]", "value": "Active"}, {"measurement": "Activity", "setting": "MDA-MB-231 [17]", "value": "Active"}, {"measurement": "Activity", "setting": "MDA-MB-231 [18]", "value": "Active"}, {"measurement": "Activity", "setting": "MDA-MB-231 [19]", "value": "Active"}, {"measurement": "Activity", "setting": "MDA-MB-231 [20]", "value": "Active"}, {"measurement": "Activity", "setting": "MDA-MB-231 [21]", "value": "Active"}, {"measurement": "Activity", "setting": "MDA-MB-231 [22]", "value": "Active"}, {"measurement": "Activity", "setting": "MDA-MB-231 [23]", "value": "Active"}, {"measurement": "Activity", "setting": "MDA-MB-231 [24]", "value": "Active"}, {"measurement": "Activity", "setting": "MDA-MB-231 [25]", "value": "Active"}, {"measurement": "Activity", "setting": "MDA-MB-231 [26]", "value": "Active"}, {"measurement": "inhibition", "setting": "MDA-MB-231 [27]", "value": "Active"}, {"measurement": "inhibition", "setting": "MDA-MB-231 [28]", "value": "Active"}, {"measurement": "inhibition", "setting": "MDA-MB-231 [29]", "value": "Active"}, {"measurement": "inhibition", "setting": "MDA-MB-231 [30]", "value": "inactive"}, {"measurement": "Activity", "setting": "MDA-MB-231 [31]", "value": "inactive"}, {"measurement": "Activity", "setting": "MDA-MB-231 [32]", "value": "inactive"}]}]}
